# How the values were obtained:
# [1] = test system: trimers (SEQ ID NO:36) and labeled HR2 peptide (SEQ ID NO:33); assay: Fluorescence polarization assay of inhibition of complexing between trimers and labeled HR2 peptide; format: binding, HIV-1; conditions: read-out: Concentration to inhibit complexing between the trimers and labeled HR2 peptide by 50% (IC50); fluorescein-labeled HR2 peptide 0.2 nM; trimers SEQ ID NO:36 50 nM
# Description: In an example of a homogenous assay carried out as a liquid phase-based assay system, a fluorescence polarization assay was used in taking advantage of the high affinity interaction between HR1 and HR2 regions. Into reaction wells of a high throughput plate (>300 reaction wells) was added 20 μl of a solution containing a desired concentration of molecule to be assessed for its ability to bind to trimers employed with the present invention (e.g., formed from synthetic peptide) and either inhibit or disrupt HR1-HR2 binding interactions (“complexing between HR1 and HR2″). […] To each reaction well was then added 10 μl of a solution containing a desired concentration of trimers (formed from synthetic peptide employed with the present invention). […] Fluorescence intensity of polarized light was then measured with a detection system comprising a spectrophotometer, and the amount of polarized light was calculated using standard software in the art. In this example of the method according to the present invention, molecules assessed for ability to inhibit or disrupt complexing between trimers and a labeled HR2 peptide (e.g., SEQ ID NO:33) comprised either of two HR2 peptides.
# HIV-1 = conditions: in vitro infectivity assay
# Description: These assays score for reduction of infectious virus titer employing the indicator cell lines MAGI or the CCR5 expressing derivative cMAGI. Both cell lines exploit the ability of HIV-1 tat to transactivate the expression of a β-galactosidase reporter gene driven by the HIV-LTR. The β-gal reporter has been modified to localize in the nucleus and can be detected with the X-gal substrate as intense nuclear staining within a few days of infection. The number of stained nuclei can thus be interpreted as equal to the number of infectious virions in the challenge inoculum if there is only one round of infection prior to staining. […] The cells were cultured for 2 more days, and then fixed and stained with the X-gal substrate to detect HIV-infected cells. The number of infected cells for each control and peptide dilution was determined with the CCD-imager, and then the IC50 and IC90 were calculated (expressed in μg/ml).
substance,measurement,setting,value
"HR2 peptide A: HR2 peptide, derived from the HR2 region of HIV-1 gp41; also used labeled as binding partner (WMEWDREINNYTSLIHSLIEESQNQQEKNEQELLEL)",IC50,[1],0.068 µM
same,Antiviral activity against HIV-1 IC50,HIV-1,0.002 mg/L
same,Antiviral activity against HIV-1 IC90,HIV-1,0.072 mg/L
